Data set [1] in a line: pH of 1% agmatine salt solutions in purified water at room temperature. The format is physicochemical. The settings on record: 1% in purified water. The text has this:
Compounds and formulations according to embodiments of the present disclosure may provide a method to increase cellular uptake of agmatine in an animal or human. It should be appreciated that agmatine uptake may increase dramatically with increasing pH, and protonation of the amino group of agmatine is dependent on pH. The guanidinium group in agmatine has a pH of about 12.5 in aqueous solution while the amino group in agmatine has a pH of about 9. At the physiological pH, agmatine may be protonated and thus, requires transporters for uptake into the cells to occur. The fraction of the molecules having a single positive charge may increase as pH increases. […] This is reflected in FIGS. 1 and 2.

Data set [2] in a line: Titration of 1% agmatine salt solutions with aqueous 0.1N HCl. The format is physicochemical. The settings on record: 1% solution titrated with 0.1N HCl. The protocol:
FIG. 1 depicts a graphical representation of 1% agmatine salt solutions in a titration with an aqueous 0.1N HCl solution according to an embodiment of the present disclosure;
(§1) The pH dependence has been evaluated in acidic as well as basic conditions. […] About 15 mL of 0.1N HCl may be used to lower the pH of agmatine phosphate at around 3 while other agmatine salts, at the same concentration and in the same measuring conditions, required approximately 2-4 mL to change to an acidic pH. The same kind of behavior was observed when solutions of agmatine salts were titrated with a solution of agmatine base. About 20 mL were required to make the pH alkaline (above 8) in the case of agmatine phosphate, while other agmatine salts required approximately 2-3 mL to achieve the same pH range. Taking these observations into consideration along with the fact that better uptake of agmatine is observed at a higher pH, it should be appreciated that agmatine dihydrochloride and agmatine phosphate may be more desirable agmatine salts than agmatine sulfate for improving bioavailability of orally administered agmatine.

Data set [3] is described as follows: Titration of 1% agmatine salt solutions with 5% aqueous arginine base. The format is physicochemical. The settings on record: 1% solution titrated with 5% arginine base, room temperature. As for the experimental part: FIG. 2 depicts a graphical representation of 1% agmatine salt solutions in a titration with an 5% aqueous arginine base solution at room temperature according to an embodiment of the present disclosure;
as §1

The conditions of data set [4]: approximately 150 g over three days, oral; cited from earlier work.
The conditions of data set [5]: prior intake, trained young men; cited from earlier work.
The conditions of data set [6]: cited from earlier work.
For data set [7] the following is noted: concentration of 1 mM; cited from earlier work.
The subject of data set [8] is rat. The settings on record: rat experimental model; cited from earlier work.
For data set [9] the following is noted: 300 mg daily for 6 weeks, young healthy trained athletes; cited from earlier work.
Data set [10] can be described thus: pH of buffer media. The format is physicochemical. The settings on record: room temperature. From the text:
Crea-Trona® is also known as buffered creatine. During the fabrication process, AlzChem uses a double buffer from sodium carbonate and sodium bi-carbonate, both natural minerals, which creates an alkaline environment with a pH value between 8 and 12. Crea-Trona is more efficient than other types of creatine, including those with an alkaline pH-buffer (kre-alkalynes). The double buffer prevents the pH-value in the muscles from dropping rapidly during the workout. This may lead to a larger training volume and may stimulate faster recovery of the original pH-value after the workout.
To maximize the benefits of oral administration of agmatine salts according to embodiments of the present disclosure, a buffer media may be used in formulations, or a stable mono-protonated or neutral form of such agmatine salts should be administered instead. As reflected in the formulations described above according to embodiments of the present disclosure, different buffer media have been used including Crea-Trona (such as that offered by AlzChem), arginine base, as well as Effer-Soda (such as that offered by SPI Pharma). However, it should be appreciated that other buffer media, such as potassium carbonate or potassium bicarbonate, may be utilized without departing from the present disclosure. Such buffer media may elevate the pH of the formulation. […]

For data set [11] the following is noted: oral, with high-intensity periodized resistance training; cited from earlier work.

Take `N=C(N)NCCCCN.O=P(O)(O)O` [agmatine phosphate]: the “pH of 1% agmatine salt solution” value in data set [1] is listed as 5.7. Also, in data set [2], the “Volume of 0.1N HCl used to lower the pH to around 3 (acidic pH)” value is “About 15 mL”. The “Volume of base solution required to make the pH alkaline (above 8)” value in [3] is listed as “About 20 mL”.
Regarding `O=C[C@H](O)[C@H](O)[C@H](O)CO` [D-ribose], the “Rate of ATP replenishment over three days of rest compared to placebo sugar (maltodextrin)” value in data set [4] is “greater”.
Consider `O=C([O-])O.[Na+]` [sodium bicarbonate], for which, in data set [5], the “High-intensity intermittent exercise performance” value was “improved”.
Take `Cl.Cl.N=C(N)NCCCCN` [agmatine dihydrochloride]: the “pH of 1% agmatine salt solution” value in data set [1] came out at 6.4.
With `N=C(N)NCCCCN.O=S(=O)(O)O` [agmatine sulfate, reference compound], the “pH of 1% agmatine salt solution” value in [1] was found to be 4.8.
`N=C(N)NCCCCN` [agmatine, (4-aminobutyl)guanidine]: in data set [6], the “pKa value of the guanadino group” value is recorded as 12.5. The Cytotoxic effects result in [7] is listed as “no cytotoxic effects”. Also, the Lethal dose in [8] was 1 to 10 mg/kg.
Turning to `COc1c(O)c(C)c(C/C=C(\C)CC/C=C(\C)CC/C=C(\C)CC/C=C(\C)CC/C=C(\C)CC/C=C(\C)CC/C=C(\C)CC/C=C(\C)CC/C=C(\C)CCC=C(C)C)c(O)c1OC` [Ubiquinol, ubiquinol], in [9], the “Maximum power output versus placebo” value was “+0.08 W/kg bw” and the “Maximum power output versus placebo, relative change” value is recorded as “+2.5%”.
On to `N=C(N)NCCC[C@H](N)C(=O)O` [Arginine base, arginine], for which, in data set [10], the “pH of arginine base in solution” value is “around 10”.
As for `Nc1ncnc2c1ncn2[C@@H]1O[C@H](COP(=O)(O)OP(=O)(O)OP(=O)(O)O)[C@@H](O)[C@H]1O` [ATP, adenosine triphosphate], the “Muscle mass, strength, and power compared with placebo-matched control” value in data set [11] is “increases muscle mass, strength, and power”.
